Experimental data published in patent US5585353A, “Antibiotic peptides containing D-amino acids” (The Rockefeller University, priority 1994, dated 1996).
Where two headings read alike, the source gives them in different places. Residues, ends and D or L forms follow the SMILES beside them. No end group written: not given here.

Experiments:
[1] = tested on: immune inhibitor A (In A); format: in vitro ADME; conditions: InA series, Control (no Enzyme), 20 min at 36° C.; for Zone of inhibition: peptide with water
Protocol: (§1) FIGS. 1 and 2 graphically illustrate the resistance of the compounds of this invention to enzymatic hydrolysis by trypsin or immune inhibitor A (In A). The experiments were conducted as follows:
(§2) The original solutions of the enzymes contained 5 mg/ml in the case of trypsin and 0.1 mg/ml in the case of InA. These two samples were diluted as follows: A 10^-1, B 10^-2, C 10^-3 and D 10^-4. From each dilution, 2 ul were mixed with 2 ul of two peptides (D-CA and L-CA, both containing 1.3 ug/ul=162 pmol/ul). Control mixtures were made with 2 ul water and 2 ul peptide. All samples were incubated for 20 min at 36° C. Before and after the incubation, all samples were kept on ice. After the incubation 3 ul were placed in wells on plates seeded with E. coli D21 in order the determine the amount of antibiotic that was left. The diameter of the inhibition zone was recorded and compared with a previously prepared a standard curve. Results are as given in the table and illustrated in the figures.

[2] = molecular target: immune inhibitor A (In A) (Bacillus thuringiensis subsp. alesti, UniProt P23382); format: in vitro ADME; conditions: 20 min at 36° C.; for Zone of inhibition: E. coli D21 plates
Protocol: as §1, §2

Sheep red cells = test: inhibition zone assay, lethal concentration on sheep red cells; format: cell-based; conditions: thin agarose plates
Protocol: (§3) Thin agar or agarose plates (8.5 cm diameter) were prepared with 6 ml of rich medium containing 100 ug/ml of streptomycin and 2×10^5 viable cells of a test organism resistant to streptomycin. Wells of 3.5 mm diameter were punched in the plates and 3 ul of serially diluted samples were placed in the wells. The diameters of the zones of inhibition around the wells were measured after overnight incubation at 30° or 37° C. For each peptide the squares of the zone diameters were plotted against the logarithm of the concentration, and from the slopes and intercepts the lethal concentrations were calculated as described by Hultmark (1983) EMBO J. 2, 571-76 or Hultmark et al (1982) Eur. J. Biochem. 127 207-217 each of which being incorporated herein by reference.
(§4) Lethal Concentrations calculated from inhibition zones on thin agarose
(§5) S. aureus Cowan 1; Strep: S. pyogenes; SRC: Sheep red cells.; *all amino

P. aeruginosa OT97 = test: inhibition zone assay, lethal concentration; format: cell-based; conditions: P. aeruginosa OT97, thin agarose plates
Protocol: as §3, §4
(§6) plates seeded with the respective organisms. D21: E. coli; OT97: P.
(§7) aeruginosa; Bs11: B. subtilis; +ME: plates prepared with medium E; Staph: […]

trypsin = test: proteolytic resistance to trypsin, residual antibiotic by inhibition zone on E. coli D21; format: in vitro ADME; conditions: 20 min at 36° C.
Protocol: as §1, §2

S. aureus Cowan 1 = test: inhibition zone assay, lethal concentration; format: cell-based; conditions: S. aureus Cowan 1, thin agarose plates
Protocol: as §3, §4
aeruginosa; Bs11: B. subtilis; +ME: plates prepared with medium E; Staph:
as §5

S. pyogenes = test: inhibition zone assay, lethal concentration; format: cell-based; conditions: thin agarose plates
Protocol: as §3, §4, §5

B. subtilis Bs11 = test: inhibition zone assay, lethal concentration; format: cell-based; conditions: for Lethal Concentrations Bs11 +ME: B. subtilis Bs11, plates prepared with medium E; for Lethal Concentrations Bs11: B. subtilis Bs11, thin agarose plates
Protocol: as §3, §4, §7

E. coli D21 = test: inhibition zone assay, lethal concentration; format: cell-based; conditions: E. coli D21, thin agarose plates
Protocol: as §3, §4, §6

[3] = InA dilution A (10^-1 of 0.1 mg/ml)
[4] = Trypsin dilution A (10^-1 of 5 mg/ml), E. coli D21 plates
[5] = Trypsin dilution B (10^-2), E. coli D21 plates
[6] = Trypsin dilution C (10^-3), E. coli D21 plates
[7] = Trypsin dilution D (10^-4), E. coli D21 plates
[8] = Trypsin series, Control (no enzyme)
[9] = Trypsin series, Control (no enzyme), peptide with water

immune inhibitor A (In A) (Bacillus thuringiensis subsp. alesti, UniProt P23382), sequence (P23382 41-687): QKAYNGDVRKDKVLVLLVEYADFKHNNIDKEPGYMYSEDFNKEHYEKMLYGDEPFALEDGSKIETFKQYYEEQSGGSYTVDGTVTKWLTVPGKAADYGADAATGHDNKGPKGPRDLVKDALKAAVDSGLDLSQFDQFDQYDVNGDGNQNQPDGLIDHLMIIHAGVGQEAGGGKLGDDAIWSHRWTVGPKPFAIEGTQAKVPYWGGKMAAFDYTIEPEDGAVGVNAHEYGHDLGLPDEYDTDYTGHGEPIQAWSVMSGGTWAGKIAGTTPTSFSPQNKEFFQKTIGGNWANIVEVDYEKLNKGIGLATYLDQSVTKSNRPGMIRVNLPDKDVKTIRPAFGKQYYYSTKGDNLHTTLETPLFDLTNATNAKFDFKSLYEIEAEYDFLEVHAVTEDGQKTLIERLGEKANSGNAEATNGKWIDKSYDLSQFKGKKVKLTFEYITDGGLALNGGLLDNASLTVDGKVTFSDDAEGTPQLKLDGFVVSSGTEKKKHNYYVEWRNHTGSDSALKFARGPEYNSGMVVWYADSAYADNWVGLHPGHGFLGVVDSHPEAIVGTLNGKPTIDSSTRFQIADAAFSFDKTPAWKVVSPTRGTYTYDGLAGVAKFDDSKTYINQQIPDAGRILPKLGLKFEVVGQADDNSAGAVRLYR

Molecule: CC[C@@H](C)[C@@H](NC(=O)CNC(=O)[C@@H](CC(=O)O)NC(=O)[C@@H](CCCNC(=N)N)NC(=O)[C@H](NC(=O)[C@@H](CC(N)=O)NC(=O)[C@@H](CCC(N)=O)NC(=O)CNC(=O)[C@H](NC(=O)[C@@H](CCCCN)NC(=O)[C@@H](CCC(=O)O)NC(=O)[C@H](NC(=O)[C@@H](CCCCN)NC(=O)[C@@H](CCCCN)NC(=O)[C@@H](Cc1ccccc1)NC(=O)[C@@H](CC(C)C)NC(=O)[C@@H](CCCCN)NC(=O)[C@@H](Cc1c[nH]c2ccccc12)NC(=O)[C@H](N)CCCCN)[C@H](C)CC)C(C)C)[C@H](C)CC)C(=O)N[C@@H](C(=O)N[C@H](CCCCN)C(=O)N[C@H](C)C(=O)NCC(=O)N1CCC[C@@H]1C(=O)N[C@H](C)C(=O)N[C@@H](C(=O)N[C@H](C)C(=O)N[C@@H](C(=O)N[C@@H](C(=O)NCC(=O)N[C@H](CCC(N)=O)C(=O)N[C@H](C)C(=O)N[C@@H](C(=O)N[C@H](CCC(N)=O)C(=O)N[C@@H](C(=O)N[C@H](C)C(=O)N[C@H](CCCCN)C(N)=O)[C@H](C)CC)[C@H](C)O)C(C)C)C(C)C)C(C)C)[C@H](C)CC [Compound 2] (HELM PEPTIDE1{[dK].[dW].[dK].[dL].[dF].[dK].[dK].[dI].[dE].[dK].[dV].G.[dQ].[dN].[dI].[dR].[dD].G.[dI].[dI].[dK].[dA].G.[dP].[dA].[dV].[dA].[dV].[dV].G.[dQ].[dA].[dT].[dQ].[dI].[dA].[dK].[am]}$$$$V2.0)
- Amount of peptide left [1]: 535 pmol
- Conc. [1]: 178 µM
- Percent remaining [1]: 110%
- Zone of inhibition [1]: 1.55 cm
- Amount of peptide left ([2]; InA dilution A (10^-1)): 512 pmol
- Conc. ([2]; InA dilution A (10^-1)): 171 µM
- Percent remaining ([2]; InA dilution A (10^-1)): 106%
- Zone of inhibition [2, 3]: 1.54 cm
- Amount of peptide left ([2]; InA dilution B (10^-2)): 468 pmol
- Conc. ([2]; InA dilution B (10^-2)): 156 µM
- Percent remaining ([2]; InA dilution B (10^-2)): 96%
- Zone of inhibition ([2]; InA dilution B (10^-2)): 1.52 cm
- Amount of peptide left ([2]; InA dilution C (10^-3)): 468 pmol
- Conc. ([2]; InA dilution C (10^-3)): 156 µM
- Percent remaining ([2]; InA dilution C (10^-3)): 96%
- Zone of inhibition ([2]; InA dilution C (10^-3)): 1.52 cm
- Amount of peptide left ([2]; InA dilution D (10^-4)): 448 pmol
- Conc. ([2]; InA dilution D (10^-4)): 149 µM
- Percent remaining ([2]; InA dilution D (10^-4)): 92%
- Zone of inhibition ([2]; InA dilution D (10^-4)): 1.51 cm
- Lethal Concentrations SRC (Sheep red cells): > 300 µM
- Lethal Concentrations OT97 (P. aeruginosa OT97): 0.8 µM
- Amount of peptide left (trypsin; Trypsin dilution A (10^-1)): 535 pmol
- Conc. (trypsin; Trypsin dilution A (10^-1)): 178 µM
- Percent remaining (trypsin; Trypsin dilution A (10^-1)): 110%
- Zone of inhibition (trypsin; [4]): 1.55 cm
- Amount of peptide left (trypsin; Trypsin dilution B (10^-2)): 489 pmol
- Conc. (trypsin; Trypsin dilution B (10^-2)): 163 µM
- Percent remaining (trypsin; Trypsin dilution B (10^-2)): 101%
- Zone of inhibition (trypsin; [5]): 1.53 cm
- Amount of peptide left (trypsin; Trypsin dilution C (10^-3)): 512 pmol
- Conc. (trypsin; Trypsin dilution C (10^-3)): 171 µM
- Percent remaining (trypsin; Trypsin dilution C (10^-3)): 106%
- Zone of inhibition (trypsin; [6]): 1.54 cm
- Amount of peptide left (trypsin; Trypsin dilution D (10^-4)): 489 pmol
- Conc. (trypsin; Trypsin dilution D (10^-4)): 163 µM
- Percent remaining (trypsin; Trypsin dilution D (10^-4)): 101%
- Zone of inhibition (trypsin; [7]): 1.53 cm
- Amount of peptide left (trypsin; [8]): 512 pmol
- Conc. (trypsin; [8]): 171 µM
- Percent remaining (trypsin; [8]): 106%
- Zone of inhibition (trypsin; [9]): 1.54 cm
- Lethal Concentrations Staph (S. aureus Cowan 1): > 300 µM
- Lethal Concentrations Strep (S. pyogenes): 2 µM
- Lethal Concentrations Bs11 +ME (B. subtilis Bs11): 30 µM
- Lethal Concentrations Bs11 (B. subtilis Bs11): 3 µM
- Lethal Concentrations D21 (E. coli D21): 0.3 µM

Molecule: KWKLFKKIEKVGQNIRDGIIKAGPAVAVVGQATQIAK-NH2 [Compound 1, Cecropin A]
- Amount of peptide left [1]: 469 pmol
- Conc. [1]: 156 µM
- Percent remaining [1]: 96%
- Zone of inhibition [1]: 1.49 cm
- Amount of peptide left ([2]; InA dilution A (10^-1)): 0 pmol
- Conc. ([2]; InA dilution A (10^-1)): 0 µM
- Percent remaining ([2]; InA dilution A (10^-1)): 0%
- Zone of inhibition [2, 3]: None
- Amount of peptide left ([2]; InA dilution B (10^-2)): 316 pmol
- Conc. ([2]; InA dilution B (10^-2)): 105 µM
- Percent remaining ([2]; InA dilution B (10^-2)): 65%
- Zone of inhibition ([2]; InA dilution B (10^-2)): 1.42 cm
- Amount of peptide left ([2]; InA dilution C (10^-3)): 442 pmol
- Conc. ([2]; InA dilution C (10^-3)): 147 µM
- Percent remaining ([2]; InA dilution C (10^-3)): 91%
- Zone of inhibition ([2]; InA dilution C (10^-3)): 1.48 cm
- Amount of peptide left ([2]; InA dilution D (10^-4)): 469 pmol
- Conc. ([2]; InA dilution D (10^-4)): 156 µM
- Percent remaining ([2]; InA dilution D (10^-4)): 96%
- Zone of inhibition ([2]; InA dilution D (10^-4)): 1.49 cm
- Lethal Concentrations SRC (Sheep red cells): > 200 µM
- Lethal Concentrations OT97 (P. aeruginosa OT97): 1 µM
- Amount of peptide left (trypsin; Trypsin dilution A (10^-1)): 0 pmol
- Conc. (trypsin; Trypsin dilution A (10^-1)): 0 µM
- Percent remaining (trypsin; Trypsin dilution A (10^-1)): 0%
- Zone of inhibition (trypsin; [4]): None
- Amount of peptide left (trypsin; Trypsin dilution B (10^-2)): 0 pmol
- Conc. (trypsin; Trypsin dilution B (10^-2)): 0 µM
- Percent remaining (trypsin; Trypsin dilution B (10^-2)): 0%
- Zone of inhibition (trypsin; [5]): None
- Amount of peptide left (trypsin; Trypsin dilution C (10^-3)): 34 pmol
- Conc. (trypsin; Trypsin dilution C (10^-3)): 11 µM
- Percent remaining (trypsin; Trypsin dilution C (10^-3)): 6.8%
- Zone of inhibition (trypsin; [6]): 0.93 cm
- Amount of peptide left (trypsin; Trypsin dilution D (10^-4)): 131 pmol
- Conc. (trypsin; Trypsin dilution D (10^-4)): 44 µM
- Percent remaining (trypsin; Trypsin dilution D (10^-4)): 27%
- Zone of inhibition (trypsin; [7]): 1.25 cm
- Amount of peptide left (trypsin; [8]): 373 pmol
- Conc. (trypsin; [8]): 124 µM
- Percent remaining (trypsin; [8]): 77%
- Zone of inhibition (trypsin; [9]): 1.45 cm
- Lethal Concentrations Staph (S. aureus Cowan 1): > 300 µM
- Lethal Concentrations Strep (S. pyogenes): 5 µM
- Lethal Concentrations Bs11 +ME (B. subtilis Bs11): 60 µM
- Lethal Concentrations Bs11 (B. subtilis Bs11): 3 µM
- Lethal Concentrations D21 (E. coli D21): 0.2 µM
